# Measured values reported in article PMC12250129, “Exploring the Therapeutic Potential of ^177Lu-PSMA-617 in a Mouse Model of Prostate Cancer Bone Metastases” (International Journal of Molecular Sciences, 2025).
# Biological target: T1, PSMA (Homo sapiens, UniProt Q04609)
# T1 construct: host or cells: LNCaP human prostate cancer cells
# Assay: Saturation binding assay on intact LNCaP cells
# Details: 1 h at 4 °C
# Description: The competitive inhibition assay was performed in 10^5 LNCaP cells/well as previously described. The radioligand (^177Lu-PSMA-617) was added as a 0.75 nM solution to 10 different concentrations of non-labeled, ^natLu-labeled PSMA-617 (from 0.01 to 10,000 nM). After 1 h of incubation at 4 °C, the cells were washed with ice-cold PBS, and the cell-bound radioactivity was measured in a gamma counter (PerkinElmer, Waltham, MA, USA). The IC50 (half-maximal inhibitory concentration) value was determined using GraphPad Prism version 5.0 (Graph Pad Software, San Diego, CA, USA). Determination of the dissociation constants (Kd values) was performed by saturation binding assays using LNCaP cells. A total of 10^5 cells were seeded in 96-well plates (cells in 100 µL of the RPMI medium/well), allowing adhesion and growth overnight at 37 °C and 5% CO2. […] The Kd values were determined by plotting specific binding (total binding minus unspecific binding) against the molar concentration of the added radioligands followed by nonlinear regression analysis using the GraphPad Prism 5 software. The binding affinity (Ki) of ^177/natLu-PSMA-617 was calculated using the following formula as described previously: Ki = IC50/[1 + ([radioligand]/Kd)].
# T1 sequence (Q04609 whole entry): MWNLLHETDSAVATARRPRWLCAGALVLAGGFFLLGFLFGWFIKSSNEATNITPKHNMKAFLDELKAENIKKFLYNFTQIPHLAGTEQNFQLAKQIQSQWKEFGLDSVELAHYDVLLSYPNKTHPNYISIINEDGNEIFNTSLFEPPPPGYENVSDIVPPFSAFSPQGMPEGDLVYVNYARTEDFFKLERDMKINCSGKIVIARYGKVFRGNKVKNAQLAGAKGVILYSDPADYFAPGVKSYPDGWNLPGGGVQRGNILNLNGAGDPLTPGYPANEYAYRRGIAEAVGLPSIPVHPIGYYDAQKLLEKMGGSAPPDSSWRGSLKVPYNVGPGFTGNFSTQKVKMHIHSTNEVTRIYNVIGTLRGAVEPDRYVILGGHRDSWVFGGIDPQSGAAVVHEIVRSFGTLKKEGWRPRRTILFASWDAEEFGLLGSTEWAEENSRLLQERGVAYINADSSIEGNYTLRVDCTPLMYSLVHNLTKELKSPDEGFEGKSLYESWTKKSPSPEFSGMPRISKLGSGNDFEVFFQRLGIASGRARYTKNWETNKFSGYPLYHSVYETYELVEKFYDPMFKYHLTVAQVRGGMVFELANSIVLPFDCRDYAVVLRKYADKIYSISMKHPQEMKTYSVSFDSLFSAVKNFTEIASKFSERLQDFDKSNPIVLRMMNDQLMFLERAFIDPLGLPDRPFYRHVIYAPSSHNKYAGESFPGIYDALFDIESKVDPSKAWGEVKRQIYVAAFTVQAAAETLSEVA
smiles,measurement,value
O=C([O-])CN1CCN(CC(=O)[O-])CCN(CC(=O)NCC2CCC(C(=O)N[C@@H](Cc3ccc4ccccc4c3)C(=O)NCCCC[C@H](NC(=O)N[C@@H](CCC(=O)O)C(=O)O)C(=O)O)CC2)CCN(CC(=O)[O-])CC1.[177Lu+3] (stereo partly shown) [^177Lu-PSMA-617],Kd,4.36 ± 0.664 nM
